Test results from article PMC8903829 (eLife, 2022).
Several values for one entry are separate records, joined by “and”; a condition that tells them apart may be missing. Equal values may be shown once. Entries after “also recorded” stand apart in the source; their conditions may differ.

Tests used:
Type in all cases: cell-based
[1] = molecular target: T1, N1768D NaV1.6 persistent currents (Homo sapiens, UniProt Q9UQD0, N1768D); experiment: Persistent current inhibition
T1 construct: expression vector containing the full-length cDNA coding for specific human and mouse sodium channel α-subunit; expressed in transfected cells; host or cells: Expi293F (transient, tetracycline-induced, pcDNA4/TO)
Excerpt: Elevated persistent and or resurgent currents are believed to underlie or contribute to the pathology of many sodium channel related pathologies ([Mason et al., 2019]; [Pan and Cummins, 2020]; [Potet et al., 2020]; [Tidball et al., 2020]; [Zaman et al., 2019]). In most conditions, normal NaV1.6 channels inactivate rapidly and nearly completely after opening.
(§1) Inorm(CPD)=(ICPD−Icontrol)/(ITTX−Icontrol).

[2] = molecular target: T2, hNaV1.6 N1466K (Homo sapiens, UniProt Q9UQD0, N1466K); experiment: Automated patch-clamp, patient-identified variant in Expi293F cells; set-up: h1.6 -N1466K 145756, Mean: scale not given here
T2 construct: expression vector containing the full-length cDNA coding for specific human and mouse sodium channel α-subunit; expressed in transfected cells; host or cells: Expi293F (transient, tetracycline-induced, pcDNA4/TO)
Description: (§2) For studies of mutant channels, cDNA plasmids in pcDNA4/TO Mammalian Expression Vector were transiently transfected into Expi293F cells stably expressing human FHF2b and human SCN1B subunit (polyclonal) background using ExpiFectamine 293 Transfection Kits (Gibco,Thermo Fisher Scientific CAT #: A14524). Induction was achieved using Tetracycline (Sigma Aldrich). Transfected cells were used in automated patch-clamp experiments 24 hours postinduction.
as §1

[3] = tested on: glutamatergic pyramidal neurons from mouse layer five neocortex; experiment: Current-clamp recording in brain slices, action-potential firing; conditions: for WT Cortical pyramidal neurons APs/1s: 0.25 μM, individual neurons; for Cumulative number of action potentials fired by each cell on increasing current injections: 250 nM, WT cortical pyramidal neurons
Description: Parasagittal cortical brain slices were prepared from> P21 mice using standard procedures (adapted from Tai et al., PNAS 2014). Briefly, the mouse was deeply anaesthetized with isoflurane and decapitated. The brain was removed and placed into chilled artificial cerebrospinal fluid (aCSF) solution containing (in mM): 125 NaCl, 25 NaHCO3, 2.5 KCl, 1.25 NaH2PO4, 2 CaCl2, 2 MgCl2, 10 d-glucose, pH 7.3, osmolarity adjusted to ~306 mOsm using sucrose. All solutions were saturated with 95% O2 and 5% CO2 constantly perfused with 95% O2/5% CO2. Slices with a thickness of 400 µm were prepared using a vibratome (Ted Pella, Inc). Following sectioning, the slices were placed in a holding chamber and incubated in a water bath at 34 °C for 15 min. The brain slices were removed from the water bath and held at room temperature for 60 min prior to recording.
All experiments involving rodent subjects were performed in accordance with the guidelines of the Canadian Council on Animal Care (CCAC). Following a 60-min incubation at room temperature, a brain slice was selected and placed on the stage of an upright microscope (SliceScope Pro 2000, Scientifica). The slice was constantly perfused with room temperature aCSF, containing 0.1% DMSO as a vehicle control, and oxygenated with 95% O2/5% CO2.The slice was visualized using brightfield microscopy, and a healthy neuron was selected from neocortical layer 5. […] Stimulation was applied in current-clamp mode, and consisted of a series of 1000ms square pulses, beginning at –20 pA and increasing by +20 pA increments (3000ms between pulses).
The slice was incubated in circulating compound for 10 min before repeating the series of square pulse stimulations. Working stock solutions were prepared in DMSO at a concentration of 20 mM.
All data analysis was done offline using ClampFit 10.7 (Molecular Devices). Data are presented as a mean ± SEM. For each sweep, the number of evoked APs was counted, and plotted as a function of current injection (beginning with –20 pA). […] Statistical significance was assessed using paired, two-way, student’s t-test applied at each current injection level with significance considered p < 0.05.

[4] = molecular target: T3, hNaV1.6 N984K (Homo sapiens, UniProt Q9UQD0, N984K); experiment: Automated patch-clamp, patient-identified variant in Expi293F cells; set-up: h1.6-N984K 145756, Mean: scale not given here
T3 construct: expression vector containing the full-length cDNA coding for specific human and mouse sodium channel α-subunit; expressed in transfected cells; host or cells: Expi293F (transient, tetracycline-induced, pcDNA4/TO)
Description: as §2, §1

T1 sequence (Q9UQD0 whole entry N1768D): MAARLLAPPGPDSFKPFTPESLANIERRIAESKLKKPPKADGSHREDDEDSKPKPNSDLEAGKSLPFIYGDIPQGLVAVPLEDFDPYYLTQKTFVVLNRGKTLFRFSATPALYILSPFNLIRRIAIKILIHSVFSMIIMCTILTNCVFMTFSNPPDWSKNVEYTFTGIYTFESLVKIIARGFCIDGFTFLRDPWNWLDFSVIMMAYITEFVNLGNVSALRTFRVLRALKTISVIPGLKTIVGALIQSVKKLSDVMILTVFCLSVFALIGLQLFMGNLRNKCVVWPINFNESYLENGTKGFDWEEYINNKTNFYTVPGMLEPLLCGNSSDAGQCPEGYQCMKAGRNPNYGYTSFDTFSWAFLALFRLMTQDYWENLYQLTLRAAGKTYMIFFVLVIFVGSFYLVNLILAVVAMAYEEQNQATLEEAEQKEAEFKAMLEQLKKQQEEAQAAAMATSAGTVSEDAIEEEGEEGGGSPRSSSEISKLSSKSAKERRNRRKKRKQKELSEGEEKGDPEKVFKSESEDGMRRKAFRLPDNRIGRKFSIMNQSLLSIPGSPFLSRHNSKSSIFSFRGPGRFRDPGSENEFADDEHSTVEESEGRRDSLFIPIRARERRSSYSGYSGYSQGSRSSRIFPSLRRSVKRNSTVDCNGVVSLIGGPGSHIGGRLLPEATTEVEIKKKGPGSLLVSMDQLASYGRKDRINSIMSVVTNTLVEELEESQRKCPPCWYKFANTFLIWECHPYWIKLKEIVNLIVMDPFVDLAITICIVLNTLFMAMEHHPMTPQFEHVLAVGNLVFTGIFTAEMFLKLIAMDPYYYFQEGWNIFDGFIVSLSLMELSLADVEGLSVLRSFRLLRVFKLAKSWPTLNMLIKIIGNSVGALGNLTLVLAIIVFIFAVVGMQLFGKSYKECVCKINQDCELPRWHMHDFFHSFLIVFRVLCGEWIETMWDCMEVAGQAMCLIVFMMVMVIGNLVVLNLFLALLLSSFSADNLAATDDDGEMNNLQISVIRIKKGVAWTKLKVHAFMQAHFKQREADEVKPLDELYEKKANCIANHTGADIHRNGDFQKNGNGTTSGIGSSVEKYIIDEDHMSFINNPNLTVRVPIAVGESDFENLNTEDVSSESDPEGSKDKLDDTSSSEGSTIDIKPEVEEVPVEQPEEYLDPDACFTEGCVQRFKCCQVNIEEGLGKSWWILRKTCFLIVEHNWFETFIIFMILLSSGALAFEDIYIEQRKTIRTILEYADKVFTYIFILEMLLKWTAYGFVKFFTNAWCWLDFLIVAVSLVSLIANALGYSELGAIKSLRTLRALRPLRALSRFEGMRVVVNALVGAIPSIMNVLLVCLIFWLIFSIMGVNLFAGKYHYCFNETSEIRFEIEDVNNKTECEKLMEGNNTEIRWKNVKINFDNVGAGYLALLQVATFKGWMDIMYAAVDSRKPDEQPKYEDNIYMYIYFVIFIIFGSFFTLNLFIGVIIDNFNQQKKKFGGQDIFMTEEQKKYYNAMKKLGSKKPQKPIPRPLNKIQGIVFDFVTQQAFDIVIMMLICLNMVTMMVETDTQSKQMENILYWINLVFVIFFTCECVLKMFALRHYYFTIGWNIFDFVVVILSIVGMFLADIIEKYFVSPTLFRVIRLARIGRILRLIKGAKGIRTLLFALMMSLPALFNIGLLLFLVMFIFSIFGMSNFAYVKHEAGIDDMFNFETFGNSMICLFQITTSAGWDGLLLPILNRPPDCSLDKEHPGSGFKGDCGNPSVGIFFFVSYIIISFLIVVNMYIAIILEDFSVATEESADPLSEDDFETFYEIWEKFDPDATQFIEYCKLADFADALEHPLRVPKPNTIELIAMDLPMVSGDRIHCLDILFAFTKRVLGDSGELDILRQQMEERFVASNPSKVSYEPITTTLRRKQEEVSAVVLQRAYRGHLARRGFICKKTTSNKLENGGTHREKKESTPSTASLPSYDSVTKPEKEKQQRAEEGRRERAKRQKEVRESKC
T1 sequence (Q92913 1-192 isoform Q92913-2 partner): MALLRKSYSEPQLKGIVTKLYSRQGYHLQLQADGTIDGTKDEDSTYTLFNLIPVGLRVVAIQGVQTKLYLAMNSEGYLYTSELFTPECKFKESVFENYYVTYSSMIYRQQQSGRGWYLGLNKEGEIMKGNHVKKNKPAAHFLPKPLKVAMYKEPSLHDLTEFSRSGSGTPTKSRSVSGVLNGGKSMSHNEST
T3 sequence (Q9UQD0 whole entry N984K): as the sequence (Q9UQD0 whole entry N1768D) above, with N984K, D1768N counted along it
T2 sequence (Q9UQD0 whole entry N1466K): as the sequence (Q9UQD0 whole entry N1768D) above, with N1466K, D1768N counted along it

Cc1cc(S(=O)(=O)Nc2cscn2)c(F)cc1N(C)[C@H]1CCN(Cc2ccccc2)C1 [NBI-921352]
N1768D current in (352)/(Vehicle), Persistent, mean ([1]; -5 Log M): 0.93 | N1768D current in (352)/(Vehicle), Persistent, mean ([1]; -5.47712 Log M): 0.92 | N1768D current in (352)/(Vehicle), Persistent, mean ([1]; -5.95424 Log M): 0.91 | N1768D current in (352)/(Vehicle), Persistent, mean ([1]; -6.43136 Log M): 0.87 | N1768D current in (352)/(Vehicle), Persistent, mean ([1]; -6.90848 Log M): 0.63 | N1768D current in (352)/(Vehicle), Persistent, mean ([1]; -7.38561 Log M): 0.44 | N1768D current in (352)/(Vehicle), Persistent, mean ([1]; -7.86274 Log M): 0.21 | N1768D current in (352)/(Vehicle), Persistent, mean ([1]; -8.33989 Log M): 0 | IC50 ([1]; non-inactivating current 10ms after initiation of test pulse): 59 nM | IC50 [2]: 39 nM | h1.6 -N1466K 145756, Mean ([2]; -5 LogM): 0.92 | h1.6 -N1466K 145756, Mean ([2]; -5.47716 LogM): 0.94 | h1.6 -N1466K 145756, Mean ([2]; -5.95429 LogM): 0.81 | h1.6 -N1466K 145756, Mean ([2]; -6.4318 LogM): 0.73 | h1.6 -N1466K 145756, Mean ([2]; -6.91009 LogM): 0.69 | h1.6 -N1466K 145756, Mean ([2]; -7.38722 LogM): 0.47 | h1.6 -N1466K 145756, Mean ([2]; -7.85387 LogM): 0.32 | h1.6 -N1466K 145756, Mean ([2]; -8.33 LogM): 0.15 | effect on action-potential firing, pyramidal neurons ([3]; 0.25 µM NBI-921352): decreased the maximum firing rate; also recorded: reduced action-potential spiking | WT Cortical pyramidal neurons APs/1s ([3]; 200 pA current injected): 0 APs/1s and 12 APs/1s and 13 APs/1s | WT Cortical pyramidal neurons APs/1s ([3]; current injected 0 pA): 0 APs/1s | WT Cortical pyramidal neurons APs/1s ([3]; current injected 20 pA): 0 APs/1s | WT Cortical pyramidal neurons APs/1s ([3]; current injected 40 pA): 0 APs/1s | WT Cortical pyramidal neurons APs/1s ([3]; current injected 60 pA, row): 0 APs/1s and 1 APs/1s and 2 APs/1s | WT Cortical pyramidal neurons APs/1s ([3]; current injected 80 pA, row): 0 APs/1s and 4 APs/1s and 6 APs/1s | WT Cortical pyramidal neurons APs/1s ([3]; current injected 100 pA, row): 0 APs/1s and 6 APs/1s and 8 APs/1s | WT Cortical pyramidal neurons APs/1s ([3]; current injected 120 pA, row): 0 APs/1s and 7 APs/1s and 9 APs/1s | WT Cortical pyramidal neurons APs/1s ([3]; current injected 140 pA, row): 0 APs/1s and 8 APs/1s and 10 APs/1s | WT Cortical pyramidal neurons APs/1s ([3]; current injected 160 pA, row): 0 APs/1s and 9 APs/1s and 12 APs/1s | WT Cortical pyramidal neurons APs/1s ([3]; current injected 180 pA, row): 0 APs/1s and 11 APs/1s (2×) | WT Cortical pyramidal neurons APs/1s ([3]; current injected 200 pA, row): 0 APs/1s and 12 APs/1s and 13 APs/1s | WT Cortical pyramidal neurons APs/1s ([3]; current injected 220 pA, row): 1 APs/1s and 13 APs/1s and 14 APs/1s | WT Cortical pyramidal neurons APs/1s ([3]; current injected 240 pA, row): 3 APs/1s and 14 APs/1s and 15 APs/1s | WT Cortical pyramidal neurons APs/1s ([3]; current injected 260 pA, row): 4 APs/1s and 15 APs/1s and 13 APs/1s | WT Cortical pyramidal neurons APs/1s ([3]; current injected 280 pA, row): 4 APs/1s and 15 APs/1s and 13 APs/1s | WT Cortical pyramidal neurons APs/1s ([3]; current injected 300 pA, row): 4 APs/1s and 17 APs/1s and 13 APs/1s | WT Cortical pyramidal neurons APs/1s ([3]; current injected 320 pA, row): 5 APs/1s and 18 APs/1s and 13 APs/1s | WT Cortical pyramidal neurons APs/1s ([3]; current injected 340 pA, row): 5 APs/1s and 19 APs/1s and 12 APs/1s | WT Cortical pyramidal neurons APs/1s ([3]; current injected 360 pA, row): 6 APs/1s and 20 APs/1s and 12 APs/1s | WT Cortical pyramidal neurons APs/1s ([3]; current injected 380 pA, row): 7 APs/1s (2×) and 21 APs/1s | WT Cortical pyramidal neurons APs/1s ([3]; current injected 400 pA, row): 8 APs/1s and 22 APs/1s and 13 APs/1s | WT Cortical pyramidal neurons APs/1s ([3]; current injected 420 pA, row): 7 APs/1s and 22 APs/1s and 5 APs/1s | WT Cortical pyramidal neurons APs/1s ([3]; current injected 440 pA, row): 7 APs/1s and 23 APs/1s and 4 APs/1s | WT Cortical pyramidal neurons APs/1s ([3]; current injected -20 pA): 0 APs/1s | Cumulative number of action potentials fired by each cell on increasing current injections ([3]; up to current injected 0 pA): 0 | Cumulative number of action potentials fired by each cell on increasing current injections ([3]; up to current injected 20 pA): 0 | Cumulative number of action potentials fired by each cell on increasing current injections ([3]; up to current injected 40 pA): 0 | Cumulative number of action potentials fired by each cell on increasing current injections ([3]; up to current injected -20 pA): 0 | IC50 [4]: 32 nM | h1.6-N984K 145756, Mean ([4]; -5 LogM): 0.94 | h1.6-N984K 145756, Mean ([4]; -5.47716 LogM): 0.92 | h1.6-N984K 145756, Mean ([4]; -5.95429 LogM): 0.89 | h1.6-N984K 145756, Mean ([4]; -6.4318 LogM): 0.81 | h1.6-N984K 145756, Mean ([4]; -6.91009 LogM): 0.66 | h1.6-N984K 145756, Mean ([4]; -7.38722 LogM): 0.56 | h1.6-N984K 145756, Mean ([4]; -7.85387 LogM): 0.33 | h1.6-N984K 145756, Mean ([4]; -8.33 LogM): 0.09
